Assay results taken from patent US6399629B1, “Efflux pump inhibitors” (priority 1998, dated 2002).

System: Pseudomonas aeruginosa PAM1001
Assay: checkerboard assay (broth microdilution): levofloxacin MIC in presence of efflux pump inhibitor
Type: cell-based
Procedure: For compounds labeled with the prefix ‘M’, potentiation effect is observed by the reduction of the minimum inhibitory concentration of levofloxacin in the presence of the experimental efflux pump inhibitor. The activity of efflux pump inhibitors (EPI) in combination with fluoroquinolones, such as levofloxacin, is assessed by the checkerboard assay (Antimicrobial Combinations. In Antibiotics in Laboratory Medicine, Ed. Victor Lorian, M.D., Fourth edition, 1996, pp 333-338) using broth microdilution method performed as recommended by the National Committee for Clinical Laboratory Standards (1997). Methods for Dilution of Antimicrobial Susceptibility Tests for Bacteria That Grow Aerobically—Fourth Edition; Approved Standard. NCCLS Document M7-A4, Vol 17 No.2). The test organism used is Pseudomonas aeruginosa PAM1001. […] The compounds tabulated below are representative of the described invention.
In these assays, multiple dilutions of two drugs, namely the EPI and levofloxacin, are being tested, alone and in combination, at concentrations equal to, above and below their respective minimal inhibitory concentrations (MICs). In the case of EPI, most of these compounds are devoid of intrinsic antimicrobial activity and are tested up to the maximum concentration of 40 μg/mL. The MIC of levofloxacin against P. aeruginosa PAM1001 is 4 μg/mL.
The EPI tested are readily soluble in water and stock solutions are prepared at a final concentration of 2 mg/mL. Stock solutions are further diluted, according to the needs of a particular assay, in Mueller Hinton Broth (MHB). Stock solution can be stored at −80° C. Quinolones are solubilized according to the instructions of the manufacturers, at a concentration of 1 mg/mL. They are then further diluted in MHB. Stock solution can be stored at −80° C.
The checkerboard assay is performed in microtiter plates. Levofloxacin is diluted in the x axis, each column containing a single concentration of levofloxacin. The EPI is diluted in the y axis, each row containing an equal concentration of EPI. The result of these manipulations is that each well of the microtiter plate contains a unique combination of concentrations of the two agents. Each EPI are tested independently.
The assay is performed in MHB with a final bacterial inoculum of 5×10^5 CFU/mL (from an early-log phase culture). Microtiter plates are incubated during 20 h at 35° C. and are read using a microtiter plate reader (Molecular Devices) at 650 nm as well as visual observation using a microtiterplate reading mirror.

Row | Compound | Levofloxacin MIC Against P. aerugiuosa PAM1001 in Presence of Efflux Pump Inhibitor (EPI), Minimum Inhibitory Concentration (EPI Conc. 0 μg/mL) | Levofloxacin MIC Against P. aerugiuosa PAM1001 in Presence of Efflux Pump Inhibitor (EPI), Minimum Inhibitory Concentration (EPI Conc. 0.625 μg/mL) | Levofloxacin MIC Against P. aerugiuosa PAM1001 in Presence of Efflux Pump Inhibitor (EPI), Minimum Inhibitory Concentration (EPI Conc. 1.25 μg/mL) | Levofloxacin MIC Against P. aerugiuosa PAM1001 in Presence of Efflux Pump Inhibitor (EPI), Minimum Inhibitory Concentration (EPI Conc. 2.5 μg/mL) | Levofloxacin MIC Against P. aerugiuosa PAM1001 in Presence of Efflux Pump Inhibitor (EPI), Minimum Inhibitory Concentration (EPI Conc. 5 μg/ mL) | Levofloxacin MIC Against P. aerugiuosa PAM1001 in Presence of Efflux Pump Inhibitor (EPI), Minimum Inhibitory Concentration (EPI Conc. 10 μg/mL) | Levofloxacin MIC Against P. aerugiuosa PAM1001 in Presence of Efflux Pump Inhibitor (EPI), Minimum Inhibitory Concentration (EPI Conc. 20 μg/mL) | Levofloxacin MIC Against P. aerugiuosa PAM1001 in Presence of Efflux Pump Inhibitor (EPI), Minimum Inhibitory Concentration (EPI Conc. 40 μg/mL)
1 | NCC(=O)N[C@H]1CN[C@@H](C(=O)N[C@H](Cc2ccc(F)cc2)C(=O)Nc2cnc3ccccc3c2)C1 [Compound M20, (2R,4R)-4-(2-Aminoacetamideo)-N-[(1R)-2-(4-fluorophenyl)-1-(3-quinolylcarbamoyl)ethyl]-2-pyrrolidinecarboxamide] | 4 µg/mL | 4 µg/mL | 4 µg/mL | 4 µg/mL | 2 µg/mL | 0.50 µg/mL | 0.125 µg/mL | 0.015 µg/mL
2 | NCC(=O)N[C@H]1CN[C@H](C(=O)N[C@H](Cc2ccc(F)cc2)C(=O)Nc2cnc3ccccc3c2)C1 [Compound M21, (2S,4R)-4-(2-Aminoacetamido)-N-[(1R)-2-(4-fluorophenyl)-1-(3-quinolylcarbamoyl)ethyl]-2-pyrrolidnecarboxamide] | 4 µg/mL | 4 µg/mL | 4 µg/mL | 2 µg/mL | 2 µg/mL | 0.25 µg/mL | 0.06 µg/mL | 0.015 µg/mL
3 | COc1cc(C)c2ncc(NC(=O)[C@@H](CCc3ccccc3)NC(=O)[C@@H]3C[C@@H](NC(=O)CN)CN3)cc2c1 [Compound M22] | 4 µg/mL | 4 µg/mL | 4 µg/mL | 4 µg/mL | 4 µg/mL | 0.50 µg/mL | 0.03 µg/mL | 0.015 µg/mL
4 | CCc1ccc2ncc(NC(=O)[C@@H](Cc3ccc(O)cc3)NC(=O)[C@H]3C[C@H](CN)CN3)cc2c1 [Compound M25, (2R,4R)-4-(Amiomethyl)-N-[(1R)-2-(4-hydroxyphenyl)-1-(6-ethyl-3-quinolylcarbamoyl)ethyl]-2-pyrrolidinecarboxamide] | 4 µg/mL | 4 µg/mL | 4 µg/mL | 4 µg/mL | 4 µg/mL | 0.5 µg/mL | 0.015 µg/mL | –
5 | NC[C@@H]1CN[C@@H](C(=O)N[C@H](CCc2ccccc2)C(=O)Nc2ccc3ncccc3c2)C1 [Compound M29, (2R,4R)-4-(Aminomethyl)-N-[(1R)-3-pheyl-1-(6-quinolylcarbamoyl)propyl]-2-pyrrolidinecarboxamide] | 4 µg/mL | 4 µg/mL | 4 µg/mL | 2 µg/mL | 1 µg/mL | 0.25 µg/mL | 0.06 µg/mL | 0.03 µg/mL
6 | NC[C@@H]1CN[C@@H](C(=O)N[C@H](CCc2ccccc2)C(=O)Nc2cccc3cccnc23)C1 [Compound M30, (2R,4R)-4-(Aminomethyl)-N-[(1R)-3-pheyl-1-(8-quinolylcarbamoyl)propyl]-2-pyrrolidinecarboxamide] | 4 µg/mL | 4 µg/mL | 4 µg/mL | 4 µg/mL | 4 µg/mL | 2 µg/mL | 0.03 µg/mL | 0.015 µg/mL
7 | NC[C@@H]1CN[C@@H](C(=O)N[C@H](Cc2ccc(F)cc2)C(=O)Nc2cnc3ccccc3c2)C1 [Compound M31, (2R,4R)-4-(Aminomethyl)-N-[(1R)-2-(4-fluoropheyl)-1-(3-quinolylcarbamoyl)ethyl]-2-pyrrolidinecarboxamide] | 4 µg/mL | 4 µg/mL | 4 µg/mL | 4 µg/mL | 1 µg/mL | 0.25 µg/mL | 0.03 µg/mL | 0.03 µg/mL
8 | NC[C@@H]1CN[C@@H](C(=O)N[C@H](CCc2ccccc2)C(=O)NCc2cnc3ccccc3c2)C1 [Compound M32] | 4 µg/mL | 4 µg/mL | 4 µg/mL | 4 µg/mL | 2 µg/mL | 1 µg/mL | 0.25 µg/mL | 0.25 µg/mL
